Test results from patent US5502035A, “N-terminus modified analogs of LHRH” (Tap Holdings Inc., priority 1994, dated 1996).
Non-standard residues stand in square brackets, D forms with d. Residues, ends and D or L forms follow the SMILES beside them. Groups on a side chain read outwards from the residue. *: point of attachment. Shikimoyl = O=C(C1=C[C@@H](O)[C@@H](O)[C@H](O)C1)*; dPhe(4-Cl) = N[C@H](Cc1ccc(Cl)cc1)C(=O)O; d1Nal = N[C@H](Cc1cccc2ccccc12)C(=O)O; d2Nal = N[C@H](Cc1ccc2ccccc2c1)C(=O)O; NMeY = CN[C@@H](Cc1ccc(O)cc1)C(=O)O; NMeF = CN[C@@H](Cc1ccccc1)C(=O)O; d3Pal = N[C@H](Cc1cccnc1)C(=O)O; NMeL = CN[C@@H](CC(C)C)C(=O)O; Nicotinoyl = O=C(c1cccnc1)*; Aze = O=C(O)[C@@H]1CCN1

Target: T1, LHRH (Rattus norvegicus, UniProt P30969)
T1 construct: endogenous in cells; host or cells: rat pituitary cells (own knowledge of the cited Haviv 1989 method)
T1 sequence (P30969 1-327): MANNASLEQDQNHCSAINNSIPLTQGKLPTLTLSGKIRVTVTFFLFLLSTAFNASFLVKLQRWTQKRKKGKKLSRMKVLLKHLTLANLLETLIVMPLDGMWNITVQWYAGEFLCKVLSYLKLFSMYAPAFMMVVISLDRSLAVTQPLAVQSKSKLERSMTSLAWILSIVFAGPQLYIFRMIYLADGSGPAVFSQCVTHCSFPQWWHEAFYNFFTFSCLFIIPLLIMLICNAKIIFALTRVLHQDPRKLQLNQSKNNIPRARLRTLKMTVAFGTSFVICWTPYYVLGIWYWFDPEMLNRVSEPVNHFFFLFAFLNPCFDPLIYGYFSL
Test: in vitro test for LHRH antagonist potency (pA2)
Format: cell-based
Conditions: negative logarithm of the antagonist concentration required to shift the response curve produced by the agonist leuprolide to two-fold higher concentration
Summary of the method: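 Rat LHRH receptor in vitro functional test; pA2 = negative log of the antagonist concentration shifting the leuprolide agonist response curve to two-fold higher concentration.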

| Structure (SMILES) | Kb [pM] |
| --- | --- |
| CC(C)C[C@H](NC(=O)[C@@H](CCCCNC(=O)C1=C[C@@H](O)[C@@H](O)[C@H](O)C1)NC(=O)[C@H](Cc1ccc(O)cc1)N(C)C(=O)[C@H](CO)NC(=O)[C@@H](Cc1cccnc1)NC(=O)[C@@H](Cc1ccc(Cl)cc1)NC(=O)[C@@H](Cc1ccc2ccccc2c1)NC(=O)[C@@H](CCCCNC(=O)C1=C[C@@H](O)[C@@H](O)[C@H](O)C1)NC(=O)c1cccnc1)C(=O)N[C@@H](CCCNC(=N)N)C(=O)N1CCC[C@H]1C(=O)N[C@H](C)C(N)=O [Example 14i, N-Nicotinyl-DLys(Shik)-D2Nal-D4ClPhe-D3Pal-Ser-NMeTyr-DLys(Shik)-Leu-Arg-Pro-DAlaNH2] (Nicotinoyl-[dK](Shikimoyl)[d2Nal][dPhe(4-Cl)][d3Pal]S[NMeY][dK](Shikimoyl)LRP[dA]-NH2) | 339 |
| CC(C)C[C@H](NC(=O)[C@@H](CCCCNC(=O)C1=C[C@@H](O)[C@@H](O)[C@H](O)C1)NC(=O)[C@H](Cc1ccc(O)cc1)N(C)C(=O)[C@H](CO)NC(=O)[C@@H](Cc1cccnc1)NC(=O)[C@@H](Cc1ccc(Cl)cc1)NC(=O)[C@@H](Cc1ccc2ccccc2c1)NC(=O)[C@@H](CCCCNC(=O)C1=C[C@@H](O)[C@@H](O)[C@H](O)C1)NC(=O)C1=C[C@@H](O)[C@@H](O)[C@H](O)C1)C(=O)N[C@@H](CCCNC(=N)N)C(=O)N1CCC[C@H]1C(=O)N[C@H](C)C(N)=O [Example 14j, N-Shikimyl-DLys(Shik)-D2Nal-D4ClPhe-D3Pal-Ser-NMeTyr-DLys(Shik)-Leu-Arg-Pro-DAlaNH2] (Shikimoyl-[dK](Shikimoyl)[d2Nal][dPhe(4-Cl)][d3Pal]S[NMeY][dK](Shikimoyl)LRP[dA]-NH2) | 759 |
| CC(C)C[C@H](NC(=O)[C@@H](CCCCNC(=O)C1=C[C@@H](O)[C@@H](O)[C@H](O)C1)NC(=O)[C@H](Cc1ccc(O)cc1)N(C)C(=O)[C@H](CO)NC(=O)[C@@H](Cc1cccnc1)NC(=O)[C@@H](Cc1ccc(Cl)cc1)NC(=O)[C@@H](Cc1ccc2ccccc2c1)NC(=O)CNC(=O)c1cccnc1)C(=O)N[C@@H](CCCNC(=N)N)C(=O)N1CCC[C@H]1C(=O)N[C@H](C)C(N)=O [Example 14k, N-Nicotinyl-Gly-D2Nal-D4ClPhe-D3Pal-Ser-NMeTyr-DLys(Shik)-Leu-Arg-Pro-DAlaNH2] (Nicotinoyl-G[d2Nal][dPhe(4-Cl)][d3Pal]S[NMeY][dK](Shikimoyl)LRP[dA]-NH2) | 10 |
| CC(C)C[C@H](NC(=O)[C@@H](CCCCNC(=O)C1=C[C@@H](O)[C@@H](O)[C@H](O)C1)NC(=O)[C@H](Cc1ccc(O)cc1)N(C)C(=O)[C@H](CO)NC(=O)[C@@H](Cc1cccnc1)NC(=O)[C@@H](Cc1ccc(Cl)cc1)NC(=O)[C@@H](Cc1ccc2ccccc2c1)NC(=O)CNC(=O)C1=C[C@@H](O)[C@@H](O)[C@H](O)C1)C(=O)N[C@@H](CCCNC(=N)N)C(=O)N1CCC[C@H]1C(=O)N[C@H](C)C(N)=O [Example 14l, N-Shikimyl-Gly-D2Nal-D4ClPhe-D3Pal-Ser-NMeTyr-DLys(Shik)-Leu-Arg-Pro-DAlaNH2] (Shikimoyl-G[d2Nal][dPhe(4-Cl)][d3Pal]S[NMeY][dK](Shikimoyl)LRP[dA]-NH2) | 20 |
| CC(C)C[C@H](NC(=O)[C@@H](CCCCNC(=O)c1cccnc1)NC(=O)[C@H](Cc1ccc(O)cc1)N(C)C(=O)[C@H](CO)NC(=O)[C@@H](Cc1cccnc1)NC(=O)[C@@H](Cc1ccc(Cl)cc1)NC(=O)[C@@H](Cc1ccc2ccccc2c1)NC(=O)CNC(=O)C1=C[C@@H](O)[C@@H](O)[C@H](O)C1)C(=O)N[C@@H](CCCNC(=N)N)C(=O)N1CCC[C@H]1C(=O)N[C@H](C)C(N)=O [Example 15a, N-Shikimyl-Gly-D2Nal-D4ClPhe-D3Pal-Ser-NMeTyr-DLys(Nic)-Leu-Arg-Pro-DAlaNH2] (Shikimoyl-G[d2Nal][dPhe(4-Cl)][d3Pal]S[NMeY][dK](Nicotinoyl)LRP[dA]-NH2) | 63.1 |
| CC(C)C[C@H](NC(=O)[C@@H](CCCCNC(=O)CNC(=O)c1cccnc1)NC(=O)[C@H](Cc1ccc(O)cc1)N(C)C(=O)[C@H](CO)NC(=O)[C@@H](Cc1cccnc1)NC(=O)[C@@H](Cc1ccc(Cl)cc1)NC(=O)[C@@H](Cc1ccc2ccccc2c1)NC(=O)CNC(=O)C1=C[C@@H](O)[C@@H](O)[C@H](O)C1)C(=O)N[C@@H](CCCNC(=N)N)C(=O)N1CCC[C@H]1C(=O)N[C@H](C)C(N)=O [Example 15b, N-Shikimyl-Gly-D2Nal-D4ClPhe-D3Pal-Ser-NMeTyr-DLys(Gly-Nic)-Leu-Arg-Pro-DAlaNH2] (Shikimoyl-G[d2Nal][dPhe(4-Cl)][d3Pal]S[NMeY][dK]([Gly-Nicotinoyl])LRP[dA]-NH2) | 20.9 |
| CC(C)C[C@H](NC(=O)[C@@H](CCCCNC(=O)[C@@H](CO)NC(=O)c1cccnc1)NC(=O)[C@H](Cc1ccc(O)cc1)N(C)C(=O)[C@H](CO)NC(=O)[C@@H](Cc1cccnc1)NC(=O)[C@@H](Cc1ccc(Cl)cc1)NC(=O)[C@@H](Cc1ccc2ccccc2c1)NC(=O)CNC(=O)C1=C[C@@H](O)[C@@H](O)[C@H](O)C1)C(=O)N[C@@H](CCCNC(=N)N)C(=O)N1CCC[C@H]1C(=O)N[C@H](C)C(N)=O [Example 15c, N-Shikimyl-Gly-D2Nal-D4ClPhe-D3Pal-Ser-NMeTyr-DLys(DSer-Nic)-Leu-Arg-Pro-DAlaNH2] (Shikimoyl-G[d2Nal][dPhe(4-Cl)][d3Pal]S[NMeY][dK]([dS-Nicotinoyl])LRP[dA]-NH2) | 10 |
| CC(C)C[C@H](NC(=O)[C@@H](CCCCNC(=O)CNC(=O)C1=C[C@@H](O)[C@@H](O)[C@H](O)C1)NC(=O)[C@H](Cc1ccc(O)cc1)N(C)C(=O)[C@H](CO)NC(=O)[C@@H](Cc1cccnc1)NC(=O)[C@@H](Cc1ccc(Cl)cc1)NC(=O)[C@@H](Cc1ccc2ccccc2c1)NC(=O)CNC(=O)C1=C[C@@H](O)[C@@H](O)[C@H](O)C1)C(=O)N[C@@H](CCCNC(=N)N)C(=O)N1CCC[C@H]1C(=O)N[C@H](C)C(N)=O [Example 15d, N-Shikimyl-Gly-D2Nal-D4ClPhe-D3Pal-Ser-NMeTyr-DLys(Gly-Shik)-Leu-Arg-Pro-DAlaNH2] (Shikimoyl-G[d2Nal][dPhe(4-Cl)][d3Pal]S[NMeY][dK]([Gly-Shikimoyl])LRP[dA]-NH2) | 17.8 |
| CC(C)C[C@H](NC(=O)[C@@H](CCCCNC(=O)C1=C[C@@H](O)[C@@H](O)[C@H](O)C1)NC(=O)[C@H](Cc1ccc(O)cc1)N(C)C(=O)[C@H](CO)NC(=O)[C@@H](Cc1cccc2ccccc12)NC(=O)[C@@H](Cc1ccc(Cl)cc1)NC(=O)[C@@H](Cc1ccc2ccccc2c1)NC(=O)CNC(=O)C1=C[C@@H](O)[C@@H](O)[C@H](O)C1)C(=O)N[C@@H](CCCNC(=N)N)C(=O)N1CCC[C@H]1C(=O)N[C@H](C)C(N)=O [Example 16, N-Shikimyl-Gly-D2Nal-D4ClPhe-D 1Nal-Ser-NMeTyr-DLys(Shik)-Leu-Arg-Pro-DAlaNH2] (Shikimoyl-G[d2Nal][dPhe(4-Cl)][d1Nal]S[NMeY][dK](Shikimoyl)LRP[dA]-NH2) | 28.8 |
| CC(C)C[C@H](NC(=O)[C@@H](CCCCNC(=O)C1=C[C@@H](O)[C@@H](O)[C@H](O)C1)NC(=O)[C@H](Cc1ccccc1)N(C)C(=O)[C@H](CO)NC(=O)[C@@H](Cc1cccnc1)NC(=O)[C@@H](Cc1ccc(Cl)cc1)NC(=O)[C@@H](Cc1ccc2ccccc2c1)NC(=O)CNC(=O)C1=C[C@@H](O)[C@@H](O)[C@H](O)C1)C(=O)N[C@@H](CCCNC(=N)N)C(=O)N1CCC[C@H]1C(=O)N[C@H](C)C(N)=O [Example 17, N-Shikimyl-Gly-D2Nal-D4ClPhe-D3Pal-Ser-NMePhe-DLys(Shik)-Leu-Arg-Pro-DAlaNH2] (Shikimoyl-G[d2Nal][dPhe(4-Cl)][d3Pal]S[NMeF][dK](Shikimoyl)LRP[dA]-NH2) | 11.2 |
| CC[C@H](C)[C@H](NC(=O)[C@@H](CCCCNC(=O)C1=C[C@@H](O)[C@@H](O)[C@H](O)C1)NC(=O)[C@H](Cc1ccc(O)cc1)N(C)C(=O)[C@H](CO)NC(=O)[C@@H](Cc1cccnc1)NC(=O)[C@@H](Cc1ccc(Cl)cc1)NC(=O)[C@@H](Cc1ccc2ccccc2c1)NC(=O)CNC(=O)C1=C[C@@H](O)[C@@H](O)[C@H](O)C1)C(=O)N[C@@H](CCCNC(=N)N)C(=O)N1CCC[C@H]1C(=O)N[C@H](C)C(N)=O [Example 18a, N-Shikimyl-Gly-D2Nal-D4ClPhe-D3Pal-Ser-NMeTyr-DLys(Shik)-Ile-Arg-Pro-DAlaNH2] (Shikimoyl-G[d2Nal][dPhe(4-Cl)][d3Pal]S[NMeY][dK](Shikimoyl)IRP[dA]-NH2) | 16.6 |
| CC(C)C[C@@H](C(=O)N[C@@H](CCCNC(=N)N)C(=O)N1CCC[C@H]1C(=O)N[C@H](C)C(N)=O)N(C)C(=O)[C@@H](CCCCNC(=O)C1=C[C@@H](O)[C@@H](O)[C@H](O)C1)NC(=O)[C@H](Cc1ccc(O)cc1)N(C)C(=O)[C@H](CO)NC(=O)[C@@H](Cc1cccnc1)NC(=O)[C@@H](Cc1ccc(Cl)cc1)NC(=O)[C@@H](Cc1ccc2ccccc2c1)NC(=O)CNC(=O)C1=C[C@@H](O)[C@@H](O)[C@H](O)C1 [Example 18b, N-Shikimyl-Gly-D2Nal-D4ClPhe-D3Pal-Ser-NMeTyr-DLys(Shik)-NMeLeu-Arg-Pro-DAlaNH2] (Shikimoyl-G[d2Nal][dPhe(4-Cl)][d3Pal]S[NMeY][dK](Shikimoyl)[NMeL]RP[dA]-NH2) | 9.12 |
| CC(C)C[C@H](NC(=O)[C@@H](CCCCNC(=O)C1=C[C@@H](O)[C@@H](O)[C@H](O)C1)NC(=O)[C@H](Cc1ccc(O)cc1)N(C)C(=O)[C@H](CO)NC(=O)[C@@H](Cc1cccnc1)NC(=O)[C@@H](Cc1ccc(Cl)cc1)NC(=O)[C@@H](Cc1ccc2ccccc2c1)NC(=O)CNC(=O)C1=C[C@@H](O)[C@@H](O)[C@H](O)C1)C(=O)N[C@@H](CCCNC(=N)N)C(=O)N1CC[C@H]1C(=O)N[C@H](C)C(N)=O [Example 19, N-Shikimyl-Gly-D2Nal-D4ClPhe-D3Pal-Ser-NMeTyr-DLys(Shik)-Leu-Arg-Aze-DAlaNH2] (Shikimoyl-G[d2Nal][dPhe(4-Cl)][d3Pal]S[NMeY][dK](Shikimoyl)LR[Aze][dA]-NH2) | 40.7 |
